Results reported in article PMC9252919, “Controlled masking and targeted release of redox-cycling ortho-quinones via a C–C bond-cleaving 1,6-elimination” (Nature Chemistry, 2022).
Entries after “also recorded” stand apart in the source; their conditions may differ. Where two headings read alike, the source gives them in different places.

Legend:
AML cell line HL-60 = experiment: N-Acetyl cysteine cytotoxicity assay (trypan blue exclusion); type: cell-based; conditions: Homo sapiens, 96 h
Method: For assays involving cytotoxicity of β-lapachone derivatives with and without antioxidant N-acetyl cysteine, HL-60 cells were plated into 24-well plates at a concentration of 2.5 × 10^5 cells ml^−1 in 450 µl. To each well was then added 25 µl of drug diluted in PBS to obtain the correct in-plate drug concentration, and 25 µl of PBS or a stock of N-acetyl cysteine at 12 mM in PBS. DMSO was maintained at an in-plate concentration of 0.1%. After 96 h incubation, toxicity was assessed by counting of live cells using the trypan blue exclusion method with a Countess II Automated Cell Counter (ThermoFisher Scientific) according to the manufacturer’s instructions. Cell viability was determined by dividing the average live cell number of treated wells by the average live cell number for control wells treated with 0.1% DMSO. Viability for wells treated with N-acetyl cysteine was assessed by comparison with control wells treated with N-acetyl cysteine and 0.1% DMSO. IC50 values were calculated using GraphPad Prism 8 software.

ovine blood = experiment: Methaemoglobin analysis in ovine blood; set-up: species or system sheep; conditions: for methaemoglobin formation: in vitro ovine blood model, 1 h incubation
Method: Defibrinated Oxoid sheep’s blood (ThermoScientific) was diluted to a 5% v/v suspension in PBS pH 7.4. In a 96-well microtitre plate, 150 µl of blood suspension was added to 50 µl of serially diluted compound in PBS containing a 4× stock of each compound of interest. Serial dilution of compounds from DMSO stocks into PBS was performed to achieve an in-plate DMSO concentration of 0.1%. PBS buffer alone was used as a negative control. The plate was incubated for the specified time at 37 °C. The plate was then centrifuged at 3,500 r.p.m. for 5 min. The supernatant was removed and cells lysed by resuspension in 100 µl of a solution of Triton-X-100 (1%) in PBS. Following this, 80 µl of lysed cell contents were transferred to a second microtitre plate for ultraviolet measurement. Ultraviolet absorbance was measured immediately at 630 nm (MiniMax i3x Imager, Molecular Devices). Methaemoglobin increase was determined by A630−A6300/A6300×100 , where A630 is the absorbance of the test well at 630 nm, and A6300 is the absorbance of the negative control at 630 nm.

recombinant human 5-LO = molecular target: T1, recombinant human 5-LO (Homo sapiens, UniProt P09917); experiment: Cell-free activity assay for recombinant human 5-LO; type: biochemical
T1 construct: made in house; host or cells: Escherichia coli BL21
T1 sequence (P09917 1-674): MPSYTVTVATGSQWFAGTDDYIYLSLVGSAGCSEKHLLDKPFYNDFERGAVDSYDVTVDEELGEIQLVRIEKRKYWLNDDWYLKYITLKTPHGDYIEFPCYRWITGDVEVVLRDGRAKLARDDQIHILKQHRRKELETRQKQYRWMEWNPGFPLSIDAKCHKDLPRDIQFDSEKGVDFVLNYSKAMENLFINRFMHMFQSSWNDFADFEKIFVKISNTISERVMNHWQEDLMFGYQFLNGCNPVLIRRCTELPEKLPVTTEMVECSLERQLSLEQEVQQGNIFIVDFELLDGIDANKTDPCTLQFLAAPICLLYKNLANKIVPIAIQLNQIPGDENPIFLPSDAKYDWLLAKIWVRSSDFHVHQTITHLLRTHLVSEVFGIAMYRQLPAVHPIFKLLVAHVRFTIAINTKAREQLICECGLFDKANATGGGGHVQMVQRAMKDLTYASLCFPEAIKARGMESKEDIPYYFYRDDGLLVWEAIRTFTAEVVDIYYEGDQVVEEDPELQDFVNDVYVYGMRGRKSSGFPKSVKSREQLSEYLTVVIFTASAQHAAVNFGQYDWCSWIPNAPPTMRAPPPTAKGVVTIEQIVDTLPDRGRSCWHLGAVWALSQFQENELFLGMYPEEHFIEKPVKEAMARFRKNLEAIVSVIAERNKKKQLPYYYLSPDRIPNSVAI
Method: Escherichia coli (BL21) was transformed with pT3-5-LO plasmid, and recombinant 5-LO protein was expressed at 30 °C as described. Cells were lysed in 50 mM triethanolamine/HCl pH 8.0, 5 mM EDTA, 1 mM phenylmethanesulfonyl fluoride, soybean trypsin inhibitor (60 μg ml^−1) and lysozyme (1 mg ml^−1), homogenized by sonication (3 × 15 s) and centrifuged at 40,000g for 20 min at 4 °C. The 40,000g supernatant (S40) was applied to an ATP–agarose column to partially purify 5-LO as described. Aliquots of semipurified 5-LO (0.5 μg) were diluted with 1 ml ice-cold PBS containing 1 mM EDTA. Samples were preincubated with the test compound or vehicle (0.1% DMSO) with or without 1 mM DTT, as indicated. After 10 min at 4 °C, samples were prewarmed for 30 s at 37 °C, and 2 mM CaCl2 plus 20 μM arachidonic acid was added to start the formation of 5-LO products. After 10 min, the reaction was stopped by addition of 1 volume of ice-cold methanol, and the formed 5-LO products were analysed by reverse-phase HPLC as described. 5-LO products include the all-trans isomers of LTB4 (trLTB4 isomers) and 5(S)-hydroperoxy-6-trans-8,11,14-cis-eicosatetraenoic acid and its corresponding alcohol 5(S)-hydroxy-6-trans-8,11,14-cis-eicosatetraenoic acid.

[1] = In vitro redox-cycling phenol red/horseradish peroxidase reporter assay; conditions: phenol red/HRP with DTT
Method: The in vitro redox-cycling capability of compounds was assessed by phenol red/horseradish peroxidase (HRP) assay by adaption of a previously described protocol. Briefly, stocks were prepared as follows: (1) DTT to a concentration of […] in PBS pH 7.4 buffer; (2) compound stocks in PBS pH 7.4 buffer to 3× the desired concentration by 1,000× dilution of DMSO stocks; (3) a stock of phenol red/HRP detection reagent containing 300 µg ml^−1 phenol red and 180 µg ml^−1 HRP enzyme in PBS pH 7.4 buffer; (4) a stock of 1 M NaOH in water; (5) a stock of 100 µM H2O2 in PBS prepared by addition of a 30% solution of H2O2 in water into 1,000 µl of PBS. Into each well of a 96-well clear flat-bottomed plate was then added 40 µl of compound stock in PBS followed by 40 µl of DTT stock, followed immediately by 40 µl of phenol red/HRP reagent. A positive control with 100 µM H2O2 added in place of compound was included. The plate was incubated in the dark at room temperature for 15 min. Following this, 20 µl of 1 M NaOH was added to each well to terminate the reaction. Absorbance was immediately measured at 610 nm (MiniMax i3x Imager, Molecular Devices). Absorbance of treated wells was normalized to control wells treated with PBS only (zero redox cycling).

[2] = with ROS quencher NAC (600 µM), read-out: IC50, toxicity to HL-60 with NAC
[3] = without NAC, read-out: IC50, toxicity to HL-60 without NAC
[4] = without DTT, read-out: IC50, 5-LO inhibition without DTT

For `CC1(C)CCC2=C(O1)c1ccccc1C(=O)C2=O` [Compound 1, β-lapachone, reference compound], the IC50 (AML cell line HL-60; [2]) was 1.18 ± 0.18 µM, the IC50 (AML cell line HL-60; [3]) was 0.47 ± 0.26 µM and the “lowest dose concentration with detectable methaemoglobin formation” value (ovine blood; after 1 h of incubation) was 10 µM. The methaemoglobin formation (ovine blood) was “dose-dependent methaemoglobin formation”, the IC50 (recombinant human 5-LO; [4]) was > 30 µM and the “concentration above which redox activity saturates the assay” value [1] was “above 10 μM”.
For `CC1(C)CCC2=C(O1)c1ccccc1C(O)(Cc1ccccc1)C2=O` (stereo not drawn) [Compound 24, benzyl β-lapa-ketol], the IC50 (AML cell line HL-60; [2]) was 10.5 ± 0.9 µM, the IC50 (AML cell line HL-60; [3]) was 13.6 ± 1.3 µM and the methaemoglobin formation (ovine blood) was “did not occur”. For the same compound, the IC50 (recombinant human 5-LO; with DTT (1 mM), read-out: IC50, 5-LO inhibition with DTT) was 10.4 ± 4.1 µM, the IC50 (recombinant human 5-LO; [4]) was 8 ± 2.5 µM and the “in vitro redox activity” value ([1]; up to 25 μM) was “non-redox active; also recorded: no measurable redox activity”.
